Assay results published in US10544143B2, “4-azaindole compounds” (BRISTOL-MYERS SQUIBB COMPANY, priority 2017, dated 2020).
Read-outs that look alike come from different tables or passages of the source.

Columns and labels:
human TLR8 = human TLR8 (Homo sapiens (Human), UniProt Q9NR97); experiment: TLR8 inhibition reporter assay (HEK-Blue SEAP); conditions: read-out: TLR8 IC50;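 note: SEAP driven by IFN-β minimal promoter carrying NF-κB and AP-1 sites, compounds dosed 0.05 nM to 50 µM for 22 h, inhibition scaled between agonist-plus-DMSO and reference-inhibitor wells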
Chain of human TLR8 (Q9NR97 27-1041): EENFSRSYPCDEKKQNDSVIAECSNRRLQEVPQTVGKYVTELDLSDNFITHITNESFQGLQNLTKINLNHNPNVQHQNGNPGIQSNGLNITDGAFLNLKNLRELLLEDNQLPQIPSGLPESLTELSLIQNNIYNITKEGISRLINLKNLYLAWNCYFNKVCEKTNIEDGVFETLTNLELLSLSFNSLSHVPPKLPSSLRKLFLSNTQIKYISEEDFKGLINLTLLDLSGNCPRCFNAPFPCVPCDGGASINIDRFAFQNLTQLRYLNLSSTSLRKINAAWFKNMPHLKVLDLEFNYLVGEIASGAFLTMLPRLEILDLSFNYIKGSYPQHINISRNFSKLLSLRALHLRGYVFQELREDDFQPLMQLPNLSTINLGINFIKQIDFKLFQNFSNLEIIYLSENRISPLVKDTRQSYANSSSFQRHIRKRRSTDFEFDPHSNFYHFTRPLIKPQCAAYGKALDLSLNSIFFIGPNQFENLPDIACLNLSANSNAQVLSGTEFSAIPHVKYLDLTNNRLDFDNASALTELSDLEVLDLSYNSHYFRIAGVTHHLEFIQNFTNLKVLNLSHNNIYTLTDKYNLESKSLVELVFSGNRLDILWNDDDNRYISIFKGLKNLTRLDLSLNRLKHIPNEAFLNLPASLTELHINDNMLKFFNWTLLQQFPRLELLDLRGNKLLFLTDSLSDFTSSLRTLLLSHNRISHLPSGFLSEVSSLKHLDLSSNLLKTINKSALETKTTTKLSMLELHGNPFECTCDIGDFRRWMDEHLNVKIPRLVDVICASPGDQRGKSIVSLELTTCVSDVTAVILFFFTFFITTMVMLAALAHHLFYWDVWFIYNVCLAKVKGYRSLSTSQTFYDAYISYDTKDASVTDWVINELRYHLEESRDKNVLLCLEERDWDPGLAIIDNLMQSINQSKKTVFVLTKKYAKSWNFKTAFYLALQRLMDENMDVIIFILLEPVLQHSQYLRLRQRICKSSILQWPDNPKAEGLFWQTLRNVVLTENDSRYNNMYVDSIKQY

human TLR9 = human TLR9 (Homo sapiens (Human), UniProt Q9NR96); experiment: TLR9 inhibition reporter assay (HEK-Blue SEAP); conditions: read-out: TLR9 IC50;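 note: SEAP driven by an IFN-β minimal promoter with NF-κB and AP-1 sites, read after 22 h, compounds dosed 0.05 nM–50 µM, inhibition scaled between agonist plus DMSO and reference-inhibitor wells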
Chain of human TLR9 (Q9NR96 26-1032): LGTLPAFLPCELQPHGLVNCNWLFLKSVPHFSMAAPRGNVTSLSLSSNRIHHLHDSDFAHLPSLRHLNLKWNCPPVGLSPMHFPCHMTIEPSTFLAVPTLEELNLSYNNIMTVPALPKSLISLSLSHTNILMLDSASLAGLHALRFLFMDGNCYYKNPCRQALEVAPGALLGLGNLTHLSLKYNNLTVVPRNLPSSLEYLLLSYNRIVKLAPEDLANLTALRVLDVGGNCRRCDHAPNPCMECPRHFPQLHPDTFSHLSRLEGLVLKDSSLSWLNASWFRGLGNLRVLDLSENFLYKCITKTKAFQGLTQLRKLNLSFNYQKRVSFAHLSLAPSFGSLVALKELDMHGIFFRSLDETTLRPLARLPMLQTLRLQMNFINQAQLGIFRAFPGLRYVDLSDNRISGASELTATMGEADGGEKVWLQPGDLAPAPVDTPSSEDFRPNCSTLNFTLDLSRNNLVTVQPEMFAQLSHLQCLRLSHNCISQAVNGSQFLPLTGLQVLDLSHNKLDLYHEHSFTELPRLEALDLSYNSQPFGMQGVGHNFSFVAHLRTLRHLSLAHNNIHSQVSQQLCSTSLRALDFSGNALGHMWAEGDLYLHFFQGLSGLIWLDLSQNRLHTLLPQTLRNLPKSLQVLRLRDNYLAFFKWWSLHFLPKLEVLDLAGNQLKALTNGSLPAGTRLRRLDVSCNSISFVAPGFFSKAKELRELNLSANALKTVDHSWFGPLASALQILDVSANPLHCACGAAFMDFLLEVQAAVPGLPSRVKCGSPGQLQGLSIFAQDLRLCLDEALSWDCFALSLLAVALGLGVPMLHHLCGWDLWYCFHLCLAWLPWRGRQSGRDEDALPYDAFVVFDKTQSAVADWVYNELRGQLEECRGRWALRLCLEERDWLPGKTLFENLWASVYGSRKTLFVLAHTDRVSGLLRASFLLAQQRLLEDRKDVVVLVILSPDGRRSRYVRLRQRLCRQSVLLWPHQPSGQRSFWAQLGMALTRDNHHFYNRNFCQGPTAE

human TLR7 = human TLR7 (Homo sapiens (Human), UniProt Q9NYK1); experiment: TLR7 inhibition reporter assay (HEK-Blue SEAP); type: cell-based
Chain of human TLR7 (Q9NYK1 27-1049): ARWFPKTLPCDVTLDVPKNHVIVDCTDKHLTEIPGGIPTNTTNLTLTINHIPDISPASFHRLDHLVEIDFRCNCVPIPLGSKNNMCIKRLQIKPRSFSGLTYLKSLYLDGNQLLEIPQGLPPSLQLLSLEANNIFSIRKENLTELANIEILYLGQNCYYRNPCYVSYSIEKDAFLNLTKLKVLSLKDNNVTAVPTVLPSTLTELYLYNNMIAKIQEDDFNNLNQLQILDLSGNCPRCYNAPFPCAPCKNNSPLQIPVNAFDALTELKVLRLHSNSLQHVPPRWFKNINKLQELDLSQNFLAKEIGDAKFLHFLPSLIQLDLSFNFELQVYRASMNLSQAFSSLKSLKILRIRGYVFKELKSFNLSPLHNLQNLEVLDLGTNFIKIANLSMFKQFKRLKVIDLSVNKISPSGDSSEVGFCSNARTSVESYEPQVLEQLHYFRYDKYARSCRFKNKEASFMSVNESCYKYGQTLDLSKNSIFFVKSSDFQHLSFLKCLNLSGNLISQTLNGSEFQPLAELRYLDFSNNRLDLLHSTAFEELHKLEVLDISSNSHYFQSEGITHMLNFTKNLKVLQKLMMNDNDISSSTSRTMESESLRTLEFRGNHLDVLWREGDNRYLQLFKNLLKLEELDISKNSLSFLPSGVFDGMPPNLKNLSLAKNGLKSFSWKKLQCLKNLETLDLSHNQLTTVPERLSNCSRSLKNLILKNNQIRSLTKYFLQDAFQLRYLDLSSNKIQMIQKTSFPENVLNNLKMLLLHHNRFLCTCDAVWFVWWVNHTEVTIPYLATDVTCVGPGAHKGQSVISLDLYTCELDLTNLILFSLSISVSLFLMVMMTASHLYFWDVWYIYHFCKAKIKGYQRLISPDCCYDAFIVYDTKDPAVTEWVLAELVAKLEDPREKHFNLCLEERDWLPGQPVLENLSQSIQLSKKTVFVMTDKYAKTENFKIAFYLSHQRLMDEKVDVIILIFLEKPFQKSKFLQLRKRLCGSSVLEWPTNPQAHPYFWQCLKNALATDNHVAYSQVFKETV

[1] = HEK-Blue cells overexpressing human TLR8, SEAP reporter, R848 15.9 μM
[2] = HEK-Blue cells overexpressing human TLR9, SEAP reporter, ODN2006 5 nM
[3] = HEK-Blue cells overexpressing human TLR7, SEAP reporter, gardiquimod 7.5 μM
[4] = HEK-Blue cells overexpressing human TLR8, R848 15.9 μM stimulation, SEAP reporter
[5] = HEK-Blue cells overexpressing human TLR9, ODN2006 5 nM stimulation, SEAP reporter
[6] = HEK-Blue cells overexpressing human TLR7, gardiquimod 7.5 μM stimulation, SEAP reporter
[7] = HEK-Blue human TLR8 cells, R848 15.9 μM
[8] = HEK-Blue human TLR9 cells, ODN2006 5 nM
[9] = HEK-Blue human TLR7 cells, gardiquimod 7.5 μM

SMILES | IC50 (human TLR8; [4]) [nM] | IC50 (human TLR9; [5]) [nM] | IC50 (human TLR7; [6]) [nM] | IC50 (human TLR8; [7]) [nM] | IC50 (human TLR9; [8]) [nM] | IC50 (human TLR7; [9]) [nM] | further results
Cc1c(-c2[nH]c3cc(F)c(C4CCC(NC5CCOCC5)CC4)nc3c2C(C)C)cn2ncnc2c1C (stereo not drawn) [Example 504] |  |  |  |  |  |  | IC50 (human TLR8; [1]): 0.64 nM; IC50 (human TLR9; [2]): 3740 nM; IC50 (human TLR7; [3]): 0.55 nM
CC(C)c1c(-c2cn(C)c3ncccc23)[nH]c2ccc(CCC3CN(CC(=O)N(C)C)C3)nc12 [Example 683] |  |  |  |  |  |  | IC50 (human TLR8; [1]): 13 nM; IC50 (human TLR9; [2]): 322 nM; IC50 (human TLR7; [3]): 12 nM
Cc1cc(-c2[nH]c3ccc(C4CN(C(C)C)CCO4)nc3c2C(C)C)cn(C)c1=O (stereo not drawn) [Example 678] |  |  |  |  |  |  | IC50 (human TLR8; [1]): 29 nM; IC50 (human TLR9; [2]): > 50000 nM; IC50 (human TLR7; [3]): 36 nM
Cc1cc(-c2[nH]c3ccc(-c4cnn(C5CCNCC5)c4)nc3c2C(C)C)cn2ncnc12 [Example 735] |  |  |  |  |  |  | IC50 (human TLR8; [1]): 61 nM; IC50 (human TLR9; [2]): 262 nM; IC50 (human TLR7; [3]): 25 nM
CC(C)c1c(-c2cn(C)c3ncccc23)[nH]c2ccc(C3CCC(NCC(C)(C)S(C)(=O)=O)CC3)nc12 (stereo not drawn) [Example 278] | 1.2 | 837 | 1.5 |  |  |  | 
Cc1c(-c2[nH]c3ccc(C4CCC(NC5CCOCC5)CC4)nc3c2C(C)C)cn2ncnc2c1C (stereo not drawn) [Example 453] |  |  |  |  |  |  | IC50 (human TLR8; [1]): 3.3 nM; IC50 (human TLR9; [2]): 1440 nM; IC50 (human TLR7; [3]): 4 nM
COc1cc(-c2[nH]c3ccc(C4CCC(N5CC6(COC6)C5)CC4)nc3c2C(C)C)cn2ncnc12 (stereo not drawn) [Example 1037] |  |  |  | 6.2 | 1610 | 3.1 | 
COc1cc(-c2[nH]c3cc(C)c(C4CCC(NCC5(C)COC5)CC4)nc3c2C(C)C)cn2ncnc12 (stereo not drawn) [Example 315] | 29 | 5220 | 1.8 |  |  |  | 
Cc1c(-c2[nH]c3ccc(N4C5CNCC4C5)nc3c2C(C)C)cn2ncnc2c1C [Example 978] |  |  |  | 1.8 | 11500 | 11 | 
CCn1cc(-c2[nH]c3ccc(C4CCC(N5CC6(COC6)C5)CC4)nc3c2C(C)C)c2cccnc21 (stereo not drawn) [Example 290] | 6.3 | 425 | 2.1 |  |  |  | 
CC(C)c1c(-c2cn(C)c3ncccc23)[nH]c2ccc(C3CCC(NCCS(C)(=O)=O)CC3)nc12 (stereo not drawn) [Example 251] | 13 | 1750 | 8.6 |  |  |  | 
Cc1c(-c2[nH]c3ccc(N4C[C@H]5CCC[C@H](C4)N5)nc3c2C(C)C)cn2ncnc2c1C [Example 974] |  |  |  | 0.71 | 3920 | 1.1 | 
COc1cc(-c2[nH]c3ccc(C4CCC(N(C)C)CC4)nc3c2C(C)C)cn2ncnc12 (stereo not drawn) [Example 187] | 20 | 4220 | 2.1 |  |  |  | 
Cc1c(-c2[nH]c3ccc(N4C[C@H](C)N[C@@H](C)C4)nc3c2C(C)C)cn2ncnc2c1C [Example 757] |  |  |  |  |  |  | IC50 (human TLR8; [1]): 1.9 nM; IC50 (human TLR9; [2]): 5220 nM; IC50 (human TLR7; [3]): 0.7 nM
COc1cc(-c2[nH]c3cc(C)c(C4CCC(N(C)C5COC5)CC4)nc3c2C(C)C)cn2ncnc12 (stereo not drawn) [Example 330] | 4.8 | 2970 | 0.14 |  |  |  | 

Continued, in another order:

IC50 (human TLR8; [4]) [nM] | IC50 (human TLR9; [5]) [nM] | IC50 (human TLR7; [6]) [nM] | IC50 (human TLR8; [7]) [nM] | IC50 (human TLR9; [8]) [nM] | IC50 (human TLR7; [9]) [nM] | SMILES | further results
4.2 | 4330 | 11 |  |  |  | Cc1c(-c2[nH]c3ccc(N4CC(N)C4)nc3c2C(C)C)cn2ncnc2c1C [Example 14] | 
73 | 6020 | 125 |  |  |  | Cc1c(-c2[nH]c3ccc(N4CC(N(C)C(=O)CN(C)C)C4)nc3c2C(C)C)cn2ncnc2c1C [Example 19] | 
 |  |  | 2.4 | 2500 | 0.64 | Cc1c(-c2[nH]c3ccc(C4CCC(N5CC(O)C5)CC4)nc3c2C(C)C)cn2ncnc2c1C (stereo not drawn) [Example 1046] | 
1.5 | 11500 | 3.8 |  |  |  | Cc1c(-c2[nH]c3ccc(N4CCC(N(C)Cc5ccnn5C)CC4)nc3c2C(C)C)cn2ncnc2c1C [Example 62] | 
 |  |  | 1.4 | 3280 | 0.62 | Cc1c(-c2[nH]c3ccc(N4C[C@@H](C)N(C(=O)CCN5CCC5)C[C@@H]4C)nc3c2C(C)C)cn2ncnc2c1C [Example 892] | 
17 | 1410 | 2 |  |  |  | COc1cc(-c2[nH]c3ccc(C4CCC(N(C)C(C)C)CC4)nc3c2C(C)C)cn2ncnc12 (stereo not drawn) [Example 170] | 
 |  |  | 0.63 | 7440 | 0.62 | CNCC(=O)N1CCN(c2ccc3[nH]c(-c4cn5ncnc5c(C)c4C)c(C(C)C)c3n2)CC1 [Example 830] | 
31 | 3900 | 99 |  |  |  | COc1ncnc(OC)c1CN(Cc1c(OC)ncnc1OC)C1CCN(c2ccc3[nH]c(-c4cn5ncnc5c(C)c4C)c(C(C)C)c3n2)CC1 [Example 71] | 
 |  |  | 3.2 | 40500 | 6.6 | Cc1c(-c2[nH]c3ccc(N4CCN(C(=O)CN(C)CC(C)C)CC4)nc3c2C(C)C)cn2ncnc2c1C [Example 875] | 
 |  |  | 40 | 11700 | 70 | Cc1c(-c2[nH]c3ccc(NCCN)nc3c2C(C)C)cn2ncnc2c1C [Example 1001] | 
